Source: patent US9677051B2, “Erythroid production” (The Common Services Agency, priority 2012, dated 2017)
Entries after “also recorded” stand apart in the source; their conditions may differ.

Tests used:
[1] = tested on: human pluripotent stem cells (hPSC); experiment: erythroid differentiation culture of hPSCs, overall cell amplification; assay type: cell-based; settings: for rate of cell amplification in the late stage of the method: SR1 1 μM at day 5, SC1 500 nM at day 14 and 250 nM at day 16; for cell amplification, combination of GSK3β inhibitor and IBMX: GSK3 inhibitor combined with IBMX; for quality and quantity of erythrocytic cells produced: GSK3β inhibitor day 0 to day 3, used along with Wnt3a; for replacement of recombinant Wnt3A by GSK3β inhibitor: added during day 0 to day 3 of the differentiation protocol; for potency: concentration of GSK3β inhibitor: early stage of differentiation; for overall amplification of differentiating erythropoietic cultures, side by side comparison: Table 1, addition of GSK3β inhibitors, IBMX or both; for expansion in cell number / yield of differentiated cells: prolonged treatment d0 to d5, iPSC or hESC
Method: (§1) The human pluripotent stem cells (hPSC) are maintained undifferentiated in Stempro medium (Life Technologies) on Cellstart (Life Technologies) and passaged approximately every 7 days, depending on their confluence, using the EZpassage tool (Life Technologies).
(§2) For differentiation, confluent hPSC are cut into squares with the EZpassage tool (Life Technologies) and plated at 500×10^3/well on Ultra low adherence six well plates (Corning) in 3 ml/well of Stemline II (Sigma) to allow them to form embryoid bodies (EBs).
(§3) On day 0 in order to induce differentiation, the following cytokines are added: Bone Morphogenic Protein 4 (BMP4) (10 ng/ml), Vascular Endothelium Growth Factor 165 (VEGF) (10 ng/ml), Wnt3A (and/or Wnt5A) (10 ng/ml), ActivinA (5 ng/ml) and Inhibitor VIII (2 μM). GSK3 Inhibitor VIII is a specific name for the Merck product (361549), it is also called AR-A014418 or N-(4-Methoxybenzyl)-N′-(5-nitro-1,3-thiazol-2-yl)urea
(§4) On day 2 of differentiation (48 hours old EBs), a new set of cytokines is added in 0.5 ml/well of Stemline II; BMP4 (20 ng/ml), VEGF (30 ng/ml), Wnt3A (and/or Wnt5A) (10 ng/ml), ActivinA (5 ng/ml), Inhibitor VIII (2 μM), Fibroblast Growth Factor α (FGFα) (10 ng/ml), Stem Cell Factor (SCF) (20 ng/ml) and β-Estradiol (0.4 ng/ml).
(§5) NB: Given cytokine concentrations are always the final concentrations of freshly added cytokines—e.g. when cells are fed rather than undergoing complete media change, we add 0.5 ml of 6× cytokines to 2.5 ml already in well to give final total volume of 3 ml with 1× cytokines.
On day 3 of differentiation the EBs are washed in PBS then dissociated using 1 ml/well TrypleSelect 10λ for 10 minutes at 37° C. After addition of 10 ml of PBS, cells are centrifuged for 3 minutes at 1200 rpm, the supernatant is discarded and the cells are resuspended in 3 ml fresh Stemline II and replated at 200×10^3/well of a regular six well tissue culture plate with the following cytokines: BMP4 (20 ng/ml), VEGF (30 ng/ml), FGFα (10 ng/ml), SCF (30 ng/ml), Insulin-like Growth Factor 2 (IGF2) (10 ng/ml), Thrombopoietin (TPO) (10 ng/ml), Heparin (5 ug/ml), Iso Butyl Methyl Xanthine (IBMX) 50 μM and β-Estradiol (0.4 ng/ml).
On day 5 of differentiation a fresh set of cytokines identical to day 3 is added in 0.5 ml/well of Stemline II such that final concentrations of fresh cytokines are those stated for day 3.
On day 7 of differentiation the cells are harvested, centrifuged 3 minutes at 1200 rpm and resuspended in fresh Stemline II medium supplemented with the same set of cytokines as day 3. If the number of cells is above 500×10^3, it is advisable to split the culture as any drastic depletion or major pH increase of the medium can have major repercussion on the differentiation efficiency.
From day 7 to day 10 of differentiation the cell density should be closely monitored in order to maintain the cell number under 10^6 per ml by adding fully supplemented media and splitting into additional wells if required.
On day 9 of differentiation a half dose of day 3 cytokines is added in 0.5 ml/well of Stemline II such that final concentrations of fresh cytokines are half those stated for day 3.
On day 10 of differentiation, the cells are centrifuged 3 minutes at 1200 rpm then re-plated in erythroid liquid culture conditions. i.e. the cells are plated at a density of 100×10^3 cells/well in 3 ml/well of Stemline II supplemented with the following cytokines: Hydrocortisone 10^−6M, SCF (50 ng/ml), Flt3-Ligand (Flt3L) (16.7 ng/ml), BMP4 (6.7 ng/ml), Interleukin 3 (IL3) (6.7 ng/ml), IL11 (6.7 ng/ml), IBMX (50 μM) and Erythropoietin (EPO) 1.3 U/ml.
From day 10 to day 17 (short protocol) or 21 (extended A phase protocol), the above cytokines are renewed every 2 days, added in 0.5 ml of Stemline II, such that final concentrations of fresh cytokines are those stated for day 10. […]

[2] = tested on: differentiating hPSCs; experiment: morphology of differentiating cells, Rapid Romanovski staining of cytospin preparations; assay type: cell-based, human; settings: for sturdiness of cells, proneness to lysis: SR1 at day 5, SC1 at days 14 and 16
Method: At day 17 onward, the erythroid stage of the cells was determined assessment of morphology after Rapid Romanovski staining of cytospin preparations.

[3] = tested on: iPSC; experiment: erythroid differentiation culture of iPSC; assay type: cell-based, human
Method: as §1, §2, §3, §4, §5
On day 3 of differentiation the EBs are washed in PBS then dissociated using 1 ml/well TrypleSelect 10λ for 10 minutes at 37° C. […]
(§6) From day 7 to day 10 of differentiation the cell density should be closely monitored in order to maintain the cell number under 10^6 per ml by adding fully supplemented media and splitting into additional wells if required. […]

[4] = tested on: hESC line H1; experiment: erythroid differentiation culture of hESC line H1; assay type: cell-based, human; settings: H1 ESC differentiation
Method: as §1, §2
as §3, with “N-(4-Methoxybenzyl)-N′-(5-nitro-1,3-thiazol-2-yl)urea […]” for “N-(4-Methoxybenzyl)-N′-(5-nitro-1,3-thiazol-2-yl)urea”
as §6

[5] = tested on: genes involved in erythropoiesis; experiment: qRT-PCR (Taqman) of genes involved in erythropoiesis in differentiating hPSCs; assay type: cell-based, human; settings: for expression of globin genes and other markers of definitive hematopoiesis (HBA, HBG, HBB, Runx1, Gata2, HoxB4) and erythropoiesis genes (HOXA9, CD36, NFE2) / necessary reduction in pluripotent markers: hiPSC or hESC, Inhibitor VIII and IBMX; for key molecular markers, mRNA expression: iPSC, InhVIII+IBMX, day 0, 10, 17 and 24
Source text: At days 0, 10, 17 and 24 the expression of selected genes of interest by the differentiating cells was monitored by qRT-PCR (Taqman) The gene panel was selected to comprise genes known to be expressed at various stages of erythropoiesis in order to evaluate the degree of differentiation of the hPSCs.

[6] = tested on: RC9; experiment: erythroid differentiation culture of hESC line RC9; assay type: cell-based, human; settings: RC9 cell line
Method: as §1, §2
as §3, with “N-(4-Methoxybenzyl)-N′-(5-nitro-1,3-thiazol-2-yl)urea […]” for “N-(4-Methoxybenzyl)-N′-(5-nitro-1,3-thiazol-2-yl)urea”
as §6

[7] = tested on: globins; experiment: HPLC analysis of globin protein expression profile of differentiated hPSCs; assay type: cell-based, human; settings: full differentiation process in presence of both GSK3β inhibitor and IBMX
Method: At day 24, 28 or onward the globin protein expression profile was analysed by High Pressure Liquid Chromatography to evaluate the level of switch from primitive to definitive hematopoiesis.

CC(C)n1cnc2c(NCCc3ccc(O)cc3)nc(-c3csc4ccccc34)nc21 [SR1] was tested. Which “rate of cell amplification in the late stage of the method” value [1] did it give?
Its value is “greater rate of cell amplification; also recorded: enhances or increases the rate of cell amplification”.

And the “sturdiness of cells, proneness to lysis” value [2]?
The value was “sturdier and less prone to lysis; also recorded: more “sturdy” and less prone to lysis”.

Cc1cc(Nc2ncc3c(n2)N(C)C(=O)N(c2cc(NC(=O)c4cccc(C(F)(F)F)c4)ccc2C)C3)n(C)n1 [SC1] was tested. Which “rate of cell amplification in the late stage of the method” value [1] did it give?
The value was “greater rate of cell amplification; also recorded: enhances or increases the rate of cell amplification”.

What about the “sturdiness of cells, proneness to lysis” value [2] of the same molecule?
The value was “sturdier and less prone to lysis; also recorded: more “sturdy” and less prone lysis”.

With O=C1Nc2cc(Br)ccc2/C1=C1/Nc2ccccc2/C1=N\O [BiO] as the molecule, how does the “cell amplification, combination of GSK3β inhibitor and IBMX” value [1] read?
Its value is “does not have this effect”.

Which “cell amplification, combination of GSK3β inhibitor and IBMX” value [1] does the source give for Cc1c[nH]c(-c2cnc(NCCNc3ccc(C#N)cn3)nc2-c2ccc(Cl)cc2Cl)n1 [CHIR99021] here?
Its value is “synergistic”.

What about the “quality and quantity of erythrocytic cells produced” value [1] of the same molecule?
Its value is “marked improvement”.

What about the “replacement of recombinant Wnt3A by GSK3β inhibitor” value [1] of the same molecule?
Its value is “could not reproducibly replace Wnt3a”.

And the “effect on hESC versus hiPSC lines” value ([1]; compared to Inhibitor VIII)?
Its value is “stronger effect on hESC than hiPSC lines”.

What about the “potency: concentration of GSK3β inhibitor” value [1] of the same molecule?
The value was 200 nM.

Which results are given for COc1ccc(CNC(=O)Nc2ncc([N+](=O)[O-])s2)cc1 [Inhibitor VIII, N-(4-methoxybenzyl)-N′-(5-nitro-1,3-thiazol-2-yl)urea]?
replacement of Activin A ([3]; iPSC G cell line): wasn't observed; cell amplification, combination of GSK3β inhibitor and IBMX [1]: synergistic; quality and quantity of erythrocytic cells produced [1]: marked improvement; overall amplification of differentiating erythropoietic cultures, side by side comparison [1]: inconsistency. Results consistently show a positive effect of Inhibitor VIII and IBMX. The gain provided by a prolonged; total fold amplification of erythroid differentiation culture ([1]; absence or presence of inhibitor VIII, hESC lines RC9 and H1, iPS line): increases cell numbers in multiple lines; replacement of recombinant Wnt3A by GSK3β inhibitor [1]: could not reproducibly replace Wnt3a; potency: concentration of GSK3β inhibitor [1]: 2000 nM; expansion in cell number / yield of differentiated cells [1]: increases the yield of differentiated cells; expansion in cell number / yield of differentiated cells ([1]; listed as InhVIII): increases the expansion in cell number; replacement of Activin A [4]: can replace Activin A; expression of globin genes and other markers of definitive hematopoiesis (HBA, HBG, HBB, Runx1, Gata2, HoxB4) and erythropoiesis genes (HOXA9, CD36, NFE2) [5]: increase expression; necessary reduction in pluripotent markers [5]: do not affect; key molecular markers, mRNA expression [5]: Increase key molecular markers; replacement of Activin A [6]: wasn't observed

What does the source list for CC(C)Cn1c(=O)n(C)c(=O)c2[nH]cnc21 [IBMX, 3-isobutyl-1-methylxanthine]?
cell amplification, combination of GSK3β inhibitor and IBMX [1]: synergetic effect on cell amplification; expansion, cumulative fold amplification over time ([1]; H1 (hESC) or hiPSC, combinations of GSK3β inhibitors and IBMX): further increases expansion; cell numbers in the culture ([1]; IBMX added to culture): can increase cell numbers; overall amplification of differentiating erythropoietic cultures, side by side comparison [1]: inconsistency. Results consistently show a positive effect of Inhibitor VIII and IBMX. The gain provided by a prolonged; stage of addition inducing maximum amplification ([1]; added to culture medium throughout day 3 and 17): most effective; HPLC globin profile [7]: almost similar to the cells of fetal origin; cells morphology and maturation ([2]; addition of IBMX and GSK3β inhibitors, compared to the control culture conditions): did not have any negative effect; morphological appearance of cells ([2]; combination of GSK3β inhibitor and IBMX): morphologically more intact and robust; expression of globin genes and other markers of definitive hematopoiesis (HBA, HBG, HBB, Runx1, Gata2, HoxB4) and erythropoiesis genes (HOXA9, CD36, NFE2) [5]: increase expression; necessary reduction in pluripotent markers [5]: do not affect; key molecular markers, mRNA expression [5]: Increase key molecular markers

B1: Activin A: cytokine added at 5 ng/ml in the early stage of differentiation (protein, UniProt P08476 311-426, looked up)
Inhibin beta A chain: GLECDGKVNICCKKQFFVSFKDIGWNDWIIAPSGYHANYCEGECPSHIAGTSGSSLSFHSTVINHYRMRGHSPFANLKSCCVPTKLRPMSMLYYDDGQNIIKKDIQNMIVEECGCS
B1 was tested. Which “requirement for efficient differentiation” value ([3]; iPSC) did it give?
Its value is “required for efficient differentiation”.

And the “differentiation efficiency in the absence of Activin A” value ([3]; iPSC G cell line)?
The value was “markedly hinders the differentiation efficiency”.

And the “effect of an increased dose on differentiation” value ([1]; data not shown)?
Its value is “doesn't have any beneficial effect”.

And the “differentiation efficiency in the absence of Activin A” value [6]?
Its value is “markedly hinders the differentiation efficiency”.
